Counter-ions that a name gives are not always drawn.
target: T1, human EHMT2 913-1193 (Homo sapiens, UniProt Q96KQ7); experiment: EHMT2 enzyme assay on histone peptide substrate (EHMT2 PEP); format: biochemical; details: Table II; read-out: EHMT2 PEP (IC50 μM)
T1 construct: recombinant purified human EHMT2 913-1193, Viva; purchased Viva
T1 sequence (Q96KQ7 913-1193): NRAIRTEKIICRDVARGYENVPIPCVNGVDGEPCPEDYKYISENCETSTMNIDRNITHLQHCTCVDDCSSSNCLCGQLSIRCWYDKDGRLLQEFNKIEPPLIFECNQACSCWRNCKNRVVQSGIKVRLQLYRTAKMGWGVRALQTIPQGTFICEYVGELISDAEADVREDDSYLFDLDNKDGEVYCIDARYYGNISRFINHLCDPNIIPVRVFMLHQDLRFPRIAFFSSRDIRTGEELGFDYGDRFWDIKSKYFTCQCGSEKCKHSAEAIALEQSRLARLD
Outline: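 Compounds were tested as 3-fold dilutions, 10 points from a 50 μM final top (2% DMSO), after 30-min preincubation with 0.031 nM enzyme in Bicine buffer pH 7.5. Transfer of ^3H-methyl from ^3H-SAM to biotinylated histone peptide ran 60 min at room temperature and was detected by streptavidin Flashplate scintillation.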

Row | Compound | IC50 [µM]
1 | COc1ccc(Nc2nccc(NC(C)(C)C)n2)cc1OCCCN1CCCC1 [Compound 6, N^4-(tert-butyl)-N^2-(4-methoxy-3-(3-(pyrrolidin-1-yl)propoxy)phenyl)pyrimidine-2,4-diamine] | < 0.1
2 | COc1ccc(Nc2ccnc(NCC3CCNCC3)n2)cc1OCCCN1CCCC1 [Compound 7, 4-N-[4-methoxy-3-[3-(pyrrolidin-1-yl)propoxy]phenyl]-2-N-(piperidin-4-ylmethyl)pyrimidine-2,4-diamine hydrochloride] | < 0.1
3 | CC(=O)N1CCC(CNc2ccnc(Nc3ccc(Cl)c(OCCCN4CCCC4)c3)n2)CC1 [Compound 8, 1-(4-(((2-((4-chloro-3-(3-(pyrrolidin-1-yl)propoxy)phenyl)amino)pyrimidin-4-yl)amino)methyl)piperidin-1-yl)ethan-1-one] | 0.1 to 1
4 | CNC(=O)c1cnc(Nc2ccc(OC)c(OCCCN3CCCC3)c2)nc1 [Compound 9, 2-((4-methoxy-3-(3-(pyrrolidin-1-yl)propoxy)phenyl)amino)-N-methylpyrimidine-5-carboxamide] | 1 to 10
5 | COc1ccc(Nc2cc(NCC3CCNCC3)ccn2)cc1OCCCN1CCCC1 [Compound 10, N^2-(4-methoxy-3-(3-(pyrrolidin-1-yl)propoxy)phenyl)-N^4-(piperidin-4-ylmethyl)pyridine-2,4-diamine] | < 0.1
6 | COc1cnc(Nc2ccnc(CNC3CCOCC3)c2)cc1OCCCN1CCCC1 [Compound 12, 5-methoxy-4-(3-(pyrrolidin-1-yl)propoxy)-N-(2-(((tetrahydro-2H-pyran-4-yl)amino)methyl)pyridin-4-yl)pyridin-2-amine] | 1 to 10
7 | COc1ccc(Nc2ccnc(N(C)CC3CCN(C(C)=O)CC3)c2)cc1OCCCN1CCCC1 [Compound 13, 1-(4-(((4-((4-methoxy-3-(3-(pyrrolidin-1-yl)propoxy)phenyl)amino)pyridin-2-yl)(methyl)amino)methyl)piperidin-1-yl)ethan-1-one] | > 10
8 | COc1ccc(Nc2nccc(OCC3CCN(C(C)=O)CC3)n2)cc1OCCCN1CCCC1 [Compound 14, 1-(4-(((2-((4-methoxy-3-(3-(pyrrolidin-1-yl)propoxy)phenyl)amino)pyrimidin-4-yl)oxy)methyl)piperidin-1-yl)ethan-1-one] | > 10
9 | COc1ccc(Nc2nccc(NCC3CCNCC3)n2)cc1OCC(O)CN1CCCC1 (stereo not shown) [Compound 15, 1-(2-methoxy-5-((4-((piperidin-4-ylmethyl)amino)pyrimidin-2-yl)amino)phenoxy)-3-(pyrrolidin-1-yl)propan-2-ol] | < 0.1
10 | COc1ccc(Nc2nc(NCC3CCNCC3)cc(N3CCCC3)n2)cc1OCCCN1CCCC1 [Compound 103] | 0.1 to 1
11 | COc1ccc(Nc2cc(CNC3CCNCC3)n(C)n2)cc1OCCCN1CCCC1 [Compound 126] | > 10
12 | COc1ccc(Nc2cc(CNC3CCOCC3)n(C)n2)cc1OCCCN1CCCC1 [Compound 127] | > 10
13 | COc1ccc(Nc2nccc(N3CCc4[nH]ncc4C3)n2)cc1OCCCN1CCCC1 [Compound 128] | > 10
14 | COc1ccc(Nc2nccc(-c3c(C)n[nH]c3C)n2)cc1OCCCN1CCCC1 [Compound 129] | > 10
15 | COc1ccc(Nc2nccc(-c3c(C)noc3C)n2)cc1OCCCN1CCCC1 [Compound 130] | > 10
16 | COc1ccc(Nc2nccc(-c3c[nH]nc3C)n2)cc1OCCCN1CCCC1 [Compound 131] | > 10
17 | COc1ccc(Nc2nccc(N3CCN(C)C(=O)C3)n2)cc1OCCCN1CCCC1 [Compound 132] | > 10
18 | COc1ccc(Nc2nccc(N3CCCNC(=O)C3)n2)cc1OCCCN1CCCC1 [Compound 133] | 1 to 10
19 | COc1ccc(Nc2nccc(N3CCc4nc[nH]c(=O)c4C3)n2)cc1OCCCN1CCCC1 [Compound 134] | > 10
20 | COc1ccc(Nc2nccc(N(C)Cc3cccnc3)n2)cc1OCCCN1CCCC1 [Compound 135] | 1 to 10
21 | COc1ccc(Nc2nccc(N(C)Cc3ccccn3)n2)cc1OCCCN1CCCC1 [Compound 136] | 1 to 10
22 | COc1ccc(Nc2nccc(NC3COC3)n2)cc1OCCCN1CCCC1 [Compound 137] | 1 to 10
23 | COc1ccc(Nc2nccc(N3CCCN(C(C)=O)CC3)n2)cc1OCCCN1CCCC1 [Compound 138] | 1 to 10
24 | COc1ccc(Nc2nccc(N3CCN(C(C)=O)CC3)n2)cc1OCCCN1CCCC1 [Compound 139] | > 10
25 | COc1ccc(Nc2nccc(N(C)CCCO)n2)cc1OCCCN1CCCC1 [Compound 140] | 1 to 10

Row | Compound | IC50 [µM]
26 | COc1ccc(Nc2nccc(N3CCC(C)(O)CC3)n2)cc1OCCCN1CCCC1 [Compound 141] | > 10
27 | COc1ccc(Nc2nccc(N(C)C3CCOCC3)n2)cc1OCCCN1CCCC1 [Compound 142] | 1 to 10
28 | COCCCN(C)c1ccnc(Nc2ccc(OC)c(OCCCN3CCCC3)c2)n1 [Compound 143] | 1 to 10
29 | COc1ccc(Nc2nccc(CNC(C)=O)n2)cc1OCCCN1CCCC1 [Compound 144] | > 10
30 | CC(=O)N1CCC(CNc2ccnc(Nc3ccc(C)c(OCCCN4CCCC4)c3)n2)CC1 [Compound 145] | 1 to 10
31 | COc1ccc(Nc2nccc(N(C)CC3CCOCC3)n2)cc1OCCCN1CCCC1 [Compound 146] | > 10
32 | COc1ccc(Nc2nccc(N3CCC(C(C)(C)O)CC3)n2)cc1OCCCN1CCCC1 [Compound 147] | 1 to 10
33 | COc1ccc(Nc2nccc(N3CCC(O)CC3)n2)cc1OCCCN1CCCC1 [Compound 148] | 1 to 10
34 | COc1ccc(Nc2nccc(N3CCC(OC)CC3)n2)cc1OCCCN1CCCC1 [Compound 149] | > 10
35 | COc1ccc(Nc2nccc(N(C)CCO)n2)cc1OCCCN1CCCC1 [Compound 150] | 0.1 to 1
36 | COc1ccc(Nc2nccc(N3CCCOCC3)n2)cc1OCCCN1CCCC1 [Compound 151] | > 10
37 | COc1ccc(Nc2nccc(NC3CCS(=O)(=O)CC3)n2)cc1OCCCN1CCCC1 [Compound 152] | 1 to 10
38 | COc1ccc(Nc2nccc(N3CCC(C(N)=O)CC3)n2)cc1OCCCN1CCCC1 [Compound 153] | 1 to 10
39 | COc1ccc(Nc2nccc(N3CCNc4ccccc4C3)n2)cc1OCCCN1CCCC1 [Compound 154] | 1 to 10
40 | COc1ccc(Nc2nccc(N3CCc4cn[nH]c4C3)n2)cc1OCCCN1CCCC1 [Compound 155] | 1 to 10
41 | COc1ccc(Nc2nccc(N3CCc4ncncc4C3)n2)cc1OCCCN1CCCC1 [Compound 156] | 1 to 10
42 | COc1ccc(Nc2ccnc(OCC3CCN(C(C)=O)CC3)c2)cc1OCCCN1CCCC1 [Compound 157] | 1 to 10
43 | COc1ccc(N(C)c2nccc(NCC3CCN(C(C)=O)CC3)n2)cc1OCCCN1CCCC1 [Compound 158] | > 10
44 | COc1ccc(Nc2nccc(NCC3CCN(C)CC3)n2)cc1OCCCNc1ccccc1 [Compound 159] | > 10
45 | COc1ccc(Nc2nccc(NCC3CCN(C(C)=O)CC3)n2)cc1OCCCNc1ccccc1 [Compound 160] | > 10
46 | COc1ccc(Nc2nccc(N3CCC(NC(C)=O)CC3)n2)cc1OCCCN1CCCC1 [Compound 161] | > 10
47 | COc1ccc(Nc2nccc(N3CCN(S(C)(=O)=O)CC3)n2)cc1OCCCN1CCCC1 [Compound 162] | > 10
48 | COc1ccc(Nc2cc(N(C)CC3CCN(C(C)=O)CC3)ccn2)cc1OCCCN1CCCC1 [Compound 163] | > 10
49 | COc1ccc(Nc2nccc(NCc3ccc4[nH]ncc4c3)n2)cc1OCCCN1CCCC1 [Compound 164] | > 10

— patent US20210198277A1, “AMINE-SUBSTITUTED ARYL OR HETEROARYL COMPOUNDS” (Epizyme, Inc., priority 2016, published 2021)
